In US6506766B1 (Abbott Laboratories, priority 1998, dated 2003):
Where two headings read alike, the source gives them in different places.

Legend:
[1] = target: T1, human glucocorticoid receptor-α [GRX] isoform (Homo sapiens, UniProt P04150); test: Radioligand binding with human glucocorticoid receptor cytosol ([3H]-dexamethasone competition)
T1 construct: host or cells: insect SF21 cells (baculovirus)
T1 sequence (P04150 1-777): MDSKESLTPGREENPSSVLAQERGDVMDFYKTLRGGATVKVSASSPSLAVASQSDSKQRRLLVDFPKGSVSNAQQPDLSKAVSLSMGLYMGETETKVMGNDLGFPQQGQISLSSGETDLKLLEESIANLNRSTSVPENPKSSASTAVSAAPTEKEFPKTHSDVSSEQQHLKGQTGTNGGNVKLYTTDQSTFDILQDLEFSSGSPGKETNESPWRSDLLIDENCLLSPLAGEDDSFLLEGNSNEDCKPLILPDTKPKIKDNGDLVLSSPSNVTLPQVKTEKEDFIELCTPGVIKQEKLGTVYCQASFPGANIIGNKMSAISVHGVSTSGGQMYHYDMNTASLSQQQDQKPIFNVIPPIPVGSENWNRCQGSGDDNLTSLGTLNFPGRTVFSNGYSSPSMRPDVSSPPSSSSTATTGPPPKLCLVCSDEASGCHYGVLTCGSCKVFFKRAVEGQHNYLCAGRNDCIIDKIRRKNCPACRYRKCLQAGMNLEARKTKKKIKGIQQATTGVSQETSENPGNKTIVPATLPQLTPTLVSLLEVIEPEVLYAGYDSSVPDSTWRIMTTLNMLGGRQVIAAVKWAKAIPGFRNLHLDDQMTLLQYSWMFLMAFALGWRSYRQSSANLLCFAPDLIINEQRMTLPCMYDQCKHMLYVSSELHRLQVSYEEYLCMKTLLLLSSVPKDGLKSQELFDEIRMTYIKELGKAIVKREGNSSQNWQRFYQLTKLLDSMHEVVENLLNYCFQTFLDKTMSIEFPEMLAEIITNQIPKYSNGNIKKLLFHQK

[2] = target: T2, human progesterone receptor-A [PRA] isoform (Homo sapiens, UniProt P06401); test: Radioligand binding with human progesterone receptor cytosol ([3H]-progesterone competition)
T2 construct: host or cells: insect SF21 cells (baculovirus)
T2 sequence (P06401 1-769 isoform P06401-2): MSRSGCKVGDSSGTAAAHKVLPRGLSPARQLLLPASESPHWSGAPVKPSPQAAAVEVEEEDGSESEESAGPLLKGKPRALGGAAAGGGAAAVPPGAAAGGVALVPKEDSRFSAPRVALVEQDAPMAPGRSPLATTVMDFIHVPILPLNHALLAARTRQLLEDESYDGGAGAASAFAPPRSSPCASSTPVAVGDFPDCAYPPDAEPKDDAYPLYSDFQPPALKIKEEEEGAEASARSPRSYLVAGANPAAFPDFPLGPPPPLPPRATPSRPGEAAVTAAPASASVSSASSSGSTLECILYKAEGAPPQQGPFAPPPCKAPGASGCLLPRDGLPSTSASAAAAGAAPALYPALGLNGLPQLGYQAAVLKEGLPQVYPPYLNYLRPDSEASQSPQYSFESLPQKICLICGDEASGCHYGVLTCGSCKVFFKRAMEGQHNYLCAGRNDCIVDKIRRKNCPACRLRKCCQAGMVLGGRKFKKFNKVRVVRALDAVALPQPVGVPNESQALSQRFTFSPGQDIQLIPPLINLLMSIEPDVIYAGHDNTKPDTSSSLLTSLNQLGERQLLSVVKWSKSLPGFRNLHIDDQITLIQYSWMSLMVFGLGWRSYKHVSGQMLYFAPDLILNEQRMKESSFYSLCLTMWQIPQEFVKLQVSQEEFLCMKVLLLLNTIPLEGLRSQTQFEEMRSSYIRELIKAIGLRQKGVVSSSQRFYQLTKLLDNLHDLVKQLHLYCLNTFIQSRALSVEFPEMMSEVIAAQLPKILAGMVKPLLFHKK
Method: Both receptor cDNAs were cloned into baculovirus expression vectors and expressed in insect SF21 cells.
Stock solutions (32 mM) of compounds were prepared in dimethylsulfoxide (DMSO), and 50× solutions of test compounds were prepared from the 32 mM solution with a 50:50 mixture of DMSO/ethanol. The 50× solution was then diluted with binding buffer that contained 10 mM Tri-HCl, 1.5 mM EDTA, 10% glycerol, 1 mM DTT, 20 mM sodium molybdate, pH 7.5 @4° C. 1% DMSO/ethanol was present in the binding assay.
For PR binding assays, [^3H]Prog (˜36,000 dpm (˜0.8 nM)), PRA cytosol (˜40 μg protein), test compounds and binding buffer were mixed in a total volume of 200 μL and incubated at 4° C at overnight in a plate shaker. Specific binding was defined as the difference between binding of [^3H]Prog in the absence and in the presence of 3 μM unlabelled Prog.
After an overnight incubation, 50 μL of hydroxyapatite (25% weight/volume) slurry were added to each well and plates were incubated for 10 min at 0° C. in a plate shaker. Plates were suctioned with a Millipore vacuum manifold and each well was rinsed with 300 μL of ice-cold binding buffer. A 250 μL aliquot of Packard Microscint-20 was added to each well and the wells were shaken at room temperature for 20 minutes. The amount of radioactivity was determined with a Packard TopCount plate reader.
The Ki of test compounds was determined using the Cheng-Prusoff equation Ki=IC50/(1+[L*]/[KL]) where L* is the concentration of radioligand and KL is the dissociation constant of the radioligand determined from saturation analysis.

[3] = GRX cytosol expressed in insect SF21 cells, [3H]-Dex ~0.9 nM, 4° C. overnight, Ki by Cheng-Prusoff, KL ~[…], read-out: Ki (nM) GR
[4] = PRA cytosol expressed in insect SF21 cells, [3H]Prog ~0.8 nM, 4° C. overnight, Ki by Cheng-Prusoff, KL ~4.5 nM, read-out: Ki (nM) PR

SMILES	Ki [1, 3] [nM]	Ki [2, 4] [nM]	further results
CCc1cccc2c1-c1ccc3c(c1C(c1cc(Cl)cc(Cl)c1)O2)C(C)=CC(C)(C)N3 (stereo not drawn) [Example 72, 5-(3,5-Dichlorophenyl)-10-ethyl-2,5-dihydro-2,2,4-trimethyl-1H-[1]benzopyrano[3,4-f]quinoline]	17.8	1450	
CNc1cccc2c1-c1ccc3c(c1C(c1cc(Cl)cc(Cl)c1)O2)C(C)=CC(C)(C)N3 (stereo not drawn) [Example 73, 5-(3,5-Dichlorophenyl)-2,5-dihydro-2,2,4,N-tetramethyl-1H[1]benzopyrano[3,4-f]quinolin-10-amine]	10.3	4500	
C=CCNc1cccc2c1-c1ccc3c(c1C(c1cc(Cl)cc(Cl)c1)O2)C(C)=CC(C)(C)N3 (stereo not drawn) [Example 74, 5-(3,5-Dichlorophenyl)-2,5-dihydro-2,2,4-trimethyl-N-(2-propenyl)-1H-[1]benzopyrano[3,4-f]quinolin-10-amine]	11.9	4880	
C#CCOc1cccc2c1-c1ccc3c(c1C(c1ccccc1)O2)C(C)=CC(C)(C)N3 (stereo not drawn) [Example 75, 2,5-Dihydro-2,2,4-trimethyl-5-phenyl-10-(2-propynyloxy)-1H-[1]benzopyrano[3,4-f]quinoline]	7.3	13800	
C=CCOc1cccc2c1-c1ccc3c(c1C(c1ccccc1)O2)C(C)=CC(C)(C)N3 (stereo not drawn) [Example 76, 2,5-Dihydro-2,2,4-trimethyl-5-phenyl-10-(2-prenyloxy)-1H-[1]benzopyrano[3,4-f]quinoline]	152	≥ 10000	
C=CCC1Oc2cccc(CO)c2-c2ccc3c(c21)C(C)=CC(C)(C)N3 (stereo not drawn) [Example 77, 2,5-Dihydro-2,2,4-trimethyl-5-(2-propenyl)-1H-[1]benzopyrano[3,4-f]quinoline-10-methanol]	1.6	173	
CCOc1cccc2c1-c1ccc3c(c1C(c1cc(Cl)cc(Cl)c1)O2)C(C)=CC(C)(C)N3 (stereo not drawn) [Example 79, 5-(3,5-Dichlorophenyl)-10-ethoxy-2,5-dihydro-2,2,4-trimethyl-1H-[1]benzopyrano[3,4-f]quinoline]	19.2	≥ 10000	
CC1=CC(C)(C)Nc2ccc3c(c21)C(c1cc(Cl)cc(Cl)c1)Oc1cccc(O)c1-3 (stereo not drawn) [Example 80, 5-(3,5-Dichlorophenyl)-2,5-dihydro-2,2,4-trimethyl-1H-[1]benzopyrano[3,4-f]quinolin-10-ol]	168	≥ 10000	
COC(=O)Oc1cccc2c1-c1ccc3c(c1C(c1cc(Cl)cc(Cl)c1)O2)C(C)=CC(C)(C)N3 (stereo not drawn) [Example 81]	155	≥ 10000	
C=CCC1Oc2cccc(O)c2-c2ccc3c(c21)C(C)=CC(C)(C)N3 (stereo not drawn) [Example 82, 2,5-Dihydro-2,2,4-trimethyl-5-(2-propenyl)-1H-1benzopyrano[3,4-f]quinolin-10-ol]	22.9	327	
C=CCC1Oc2cccc(OC(F)(F)Br)c2-c2ccc3c(c21)C(C)=CC(C)(C)N3 (stereo not drawn) [Example 83, 10-(Bromodifluoromethoxy)-2,5-dihyro-2,2,4-trimethyl-5-(2-propenyl)-1H-[1]benzopyrano[3,4-f]quinoline]	54.8	2210	
COC(=O)Oc1cccc(C2Oc3cccc(OC)c3-c3ccc4c(c32)C(C)=CC(C)(C)N4)c1 (stereo not drawn) [Example 84, [3-(2,5-Dihydro-10-methoxy-2,2,4-trimethyl-1H-[1]benzopyrano[3,4-f]quinolin-5-yl)phenyl]methylcarbonate]			Ki ([1]; read-out: Ki (nM) GR): 17.3 nM; Ki ([2]; read-out: Ki (nM) PR): ≥ 10000 nM
COc1cccc(C2Oc3cccc(OC)c3-c3ccc4c(c32)C(C)=CC(C)(C)N4)c1 (stereo not drawn) [Example 85, 2,5-Dihydro-10-methoxy-5-(3-methoxyphenyl)-2,2,4-trimethyl-1H-[1]benzopyrano[3,4-f]quinoline]	3.5	≥ 10000	
C=CCOc1cccc(C2Oc3cccc(OC)c3-c3ccc4c(c32)C(C)=CC(C)(C)N4)c1 (stereo not drawn) [Example 86, 2,5-Dihydro-10-methoxy-2,2,4-trimethyl-5-[3-(2-propenyloxy)phenyl]-1H-[1]benzopyrano[3,4-f]quionline]	2.1	≥ 10000	
COc1cccc2c1-c1ccc3c(c1C(c1cccc(OCc4ccccc4)c1)O2)C(C)=CC(C)(C)N3 (stereo not drawn) [Example 87, 2,5-Dihydro-10-methoxy-2,2,4-trimethyl-5-[3-(phenylmethoxy)phenyl]-1H[1]benzopyrano[3,4-f]quinoline]	4.7	≥ 10000	
COc1cccc2c1-c1ccc3c(c1C(c1cccc(OCC4CC4)c1)O2)C(C)=CC(C)(C)N3 (stereo not drawn) [Example 88, 5-[3-(Cyclopropylmethoxy)phenyl]-2,5-dihydro-10-methoxy-2,2,4-trimethyl-1H-[1]benzopyrano[3,4-f]quinoline]	6	15300	
COc1cccc2c1-c1ccc3c(c1C(c1cccc(OCCN4CCCCC4)c1)O2)C(C)=CC(C)(C)N3 (stereo not drawn) [Example 89, 2,5-Dihydro-10-methoxy-2,2,4-trimethyl-5-[3-[2-(1-piperidinyl)ethoxy]pheny]-1H-[1]benzopyrano[3,4-f]quinoline]	275	≥ 10000	
CCCCCCOc1cccc(C2Oc3cccc(OC)c3-c3ccc4c(c32)C(C)=CC(C)(C)N4)c1 (stereo not drawn) [Example 90, 5-(3-Hexyloxyphenyl)-2,5-dihydro-10-methoxy-2,2,4-trimethyl-1H-[1]benzopyrano[3,4-f]quinoline]	7.6	≥ 10000	
COc1cccc2c1-c1ccc3c(c1C(c1cccc(Oc4ccc([N+](=O)[O-])cc4[N+](=O)[O-])c1)O2)C(C)=CC(C)(C)N3 (stereo not drawn) [Example 91, 5-[3-(2,4-Dinitrophenoxy)phenyl]-2,5-dihydro-10-methoxy-2,2,4-trimethyl-1H-[1]benzopyrano[3,4-f]quinoline]	17	≥ 10000	
COc1cccc2c1-c1ccc3c(c1C(c1cccc(OS(=O)(=O)c4ccc(C)cc4)c1)O2)C(C)=CC(C)(C)N3 (stereo not drawn) [Example 93, 3-(2,5-Dihydro-10-methoxy-2,2,4-trimethyl-1H-[1]benzopyrano[3,4-f]quinolin-5-yl)phenol 4-Methylbenzenesulfonate (Ester)]	148	≥ 10000	
COc1cccc2c1-c1ccc3c(c1C(c1ccc(OC(C)=O)cc1)O2)C(C)=CC(C)(C)N3 (stereo not drawn) [Example 94, 4-(2,5-Dihydro-10-methoxy-2,2,4-trimethyl-1H-[1]benzopyrano[3,4-f]quinolin5-yl)phenolacetate (Ester)]	43	≥ 10000	
COc1cccc2c1-c1ccc3c(c1C(c1ccc(O)cc1)O2)C(C)=CC(C)(C)N3 (stereo not drawn) [Example 95, 4-(2,5-Dihydro-10-methoxy-2,2,4-trimethyl-1H-[1]benzopyrano[3,4-f]quinolin-5-yl)phenol]	31	≥ 10000	
COc1cccc2c1-c1ccc3c(c1C(c1ccc(OCSC)cc1)O2)C(C)=CC(C)(C)N3 (stereo not drawn) [Example 96, 2,5-Dihydro-10-methoxy-2,2,4-trimethyl-5-[[4-(methylthio)methoxy]phenyl]-1H-[1]benzopyrano[3,4-f]quinoline]	10	9160	
COc1cccc2c1-c1ccc3c(c1C(c1ccc(OC(=O)N(C)C)cc1)O2)C(C)=CC(C)(C)N3 (stereo not drawn) [Example 97, [4-(2,5-Dihydro-10-methoxy-2,2,4-trimethyl-1H-1benzopyrano[3,4-f]quinolin-5-yl)phenyl]dimethylcarbamate]			Ki ([1]; Ki (nM) GR): 320 nM; Ki ([2]; Ki (nM) PR): ≥ 10000 nM
